Assay results reported in patent US11339130B1 (Blade Therapeutics, Inc., priority 2016, dated 2022).
Structures can show the parent of a compound that is named as a salt.

Key:
Type in all cases: biochemical
Human Calpain 1/NS1 = biological target: T1, Human Calpain 1/NS1 (Homo sapiens, UniProt P07384); assay: Calpain inhibition continuous fluorescence (FRET) assay, Human Calpain 1/NS1; settings: read-out: Human Calpain 1/NS1 IC50
T1 sequence (P07384 1-714): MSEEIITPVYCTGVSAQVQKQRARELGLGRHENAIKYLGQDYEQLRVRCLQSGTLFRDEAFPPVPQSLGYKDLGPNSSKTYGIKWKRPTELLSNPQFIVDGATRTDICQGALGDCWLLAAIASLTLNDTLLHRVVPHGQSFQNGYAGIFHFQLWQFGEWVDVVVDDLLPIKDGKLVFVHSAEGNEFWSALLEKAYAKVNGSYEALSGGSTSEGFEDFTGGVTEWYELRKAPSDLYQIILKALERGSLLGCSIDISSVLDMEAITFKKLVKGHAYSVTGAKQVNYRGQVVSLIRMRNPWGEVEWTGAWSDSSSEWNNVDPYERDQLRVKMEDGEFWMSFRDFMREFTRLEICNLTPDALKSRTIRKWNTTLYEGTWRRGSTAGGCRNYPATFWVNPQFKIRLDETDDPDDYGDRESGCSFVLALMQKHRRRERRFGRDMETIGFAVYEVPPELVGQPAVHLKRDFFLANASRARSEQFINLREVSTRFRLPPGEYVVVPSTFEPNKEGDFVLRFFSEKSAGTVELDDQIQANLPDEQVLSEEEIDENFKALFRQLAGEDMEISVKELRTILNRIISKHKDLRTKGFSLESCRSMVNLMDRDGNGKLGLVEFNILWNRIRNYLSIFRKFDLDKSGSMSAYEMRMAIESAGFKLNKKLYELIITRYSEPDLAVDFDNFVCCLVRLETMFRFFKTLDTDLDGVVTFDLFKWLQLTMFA
T1 sequence (P04632 1-268 partner): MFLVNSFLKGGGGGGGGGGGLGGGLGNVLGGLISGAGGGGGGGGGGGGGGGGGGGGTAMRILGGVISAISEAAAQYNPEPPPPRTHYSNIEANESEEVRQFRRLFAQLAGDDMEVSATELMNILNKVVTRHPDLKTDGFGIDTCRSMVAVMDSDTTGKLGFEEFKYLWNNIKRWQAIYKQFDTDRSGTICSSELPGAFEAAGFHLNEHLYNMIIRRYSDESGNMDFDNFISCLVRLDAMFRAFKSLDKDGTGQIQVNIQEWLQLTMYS
Method in brief: (§1)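 Inhibitors were preincubated with calpain in 50 mM Tris pH 7.5, 100 mM NaCl, 1 mM DTT at 25C. Reactions were started with 5-FAM/QXL 520 FRET peptide substrate plus CaCl2 and read at 490/520 nm for 10 min. IC50s came from 4-parameter fits of slope rates (1-5 min).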

Human Calpain 2/NS1 = biological target: T2, Human Calpain 2/NS1 (Homo sapiens, UniProt P17655); assay: Calpain inhibition continuous fluorescence (FRET) assay, Human Calpain 2/NS1; settings: read-out: Human Calpain 2/NS1 IC50
T2 sequence (P17655 1-700): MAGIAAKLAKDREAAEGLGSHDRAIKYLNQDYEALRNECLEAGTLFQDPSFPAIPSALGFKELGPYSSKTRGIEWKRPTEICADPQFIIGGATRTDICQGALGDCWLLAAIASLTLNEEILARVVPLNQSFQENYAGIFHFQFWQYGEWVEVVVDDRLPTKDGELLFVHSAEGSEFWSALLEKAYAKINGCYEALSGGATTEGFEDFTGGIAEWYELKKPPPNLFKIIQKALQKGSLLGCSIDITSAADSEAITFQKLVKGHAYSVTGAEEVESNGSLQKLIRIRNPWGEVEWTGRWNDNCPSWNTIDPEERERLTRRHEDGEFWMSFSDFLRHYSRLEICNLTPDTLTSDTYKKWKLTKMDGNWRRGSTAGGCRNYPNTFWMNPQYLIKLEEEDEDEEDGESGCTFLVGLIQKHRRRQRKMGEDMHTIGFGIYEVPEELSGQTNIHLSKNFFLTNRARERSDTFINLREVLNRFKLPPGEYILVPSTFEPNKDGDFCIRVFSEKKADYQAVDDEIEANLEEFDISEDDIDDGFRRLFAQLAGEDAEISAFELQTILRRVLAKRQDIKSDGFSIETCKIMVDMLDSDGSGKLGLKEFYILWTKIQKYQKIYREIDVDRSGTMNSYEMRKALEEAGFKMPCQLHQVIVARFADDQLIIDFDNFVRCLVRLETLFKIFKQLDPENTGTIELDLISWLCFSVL
T2 sequence (P04632 1-268 partner): T1 sequence (P04632 1-268 partner)
Method in brief: as §1

Human Calpain 9/NS1 = biological target: T3, Human Calpain 9/NS1 (Homo sapiens, UniProt O14815); assay: Calpain inhibition continuous fluorescence (FRET) assay, Human Calpain 9/NS1; settings: read-out: Human Calpain 9/NS1 IC50
T3 sequence (O14815 1-690): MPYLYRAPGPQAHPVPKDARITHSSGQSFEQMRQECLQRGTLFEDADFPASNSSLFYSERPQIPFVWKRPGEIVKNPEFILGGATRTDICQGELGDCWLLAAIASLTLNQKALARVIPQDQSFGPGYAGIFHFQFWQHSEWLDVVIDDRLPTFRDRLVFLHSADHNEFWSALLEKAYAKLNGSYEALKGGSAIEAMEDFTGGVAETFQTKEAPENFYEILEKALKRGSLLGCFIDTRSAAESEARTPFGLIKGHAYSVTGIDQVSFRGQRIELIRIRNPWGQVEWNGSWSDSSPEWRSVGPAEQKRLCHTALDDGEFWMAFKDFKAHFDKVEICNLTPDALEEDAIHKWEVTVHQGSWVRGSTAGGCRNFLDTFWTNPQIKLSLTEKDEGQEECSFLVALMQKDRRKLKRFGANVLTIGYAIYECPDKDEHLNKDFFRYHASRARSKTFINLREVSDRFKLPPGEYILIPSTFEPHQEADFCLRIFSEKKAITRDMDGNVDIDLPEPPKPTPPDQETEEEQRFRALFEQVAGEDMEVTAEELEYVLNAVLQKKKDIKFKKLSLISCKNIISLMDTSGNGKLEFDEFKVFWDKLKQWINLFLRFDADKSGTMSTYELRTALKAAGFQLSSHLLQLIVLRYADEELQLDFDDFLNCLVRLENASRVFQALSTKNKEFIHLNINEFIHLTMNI
T3 sequence (P04632 1-268 partner): T1 sequence (P04632 1-268 partner)
Method in brief: as §1

| IC50 (Human Calpain 1/NS1) [µM] | IC50 (Human Calpain 2/NS1) [µM] | IC50 (Human Calpain 9/NS1) [µM] | Structure (SMILES) |
| --- | --- | --- | --- |
| < 3 | < 3 | 3 to 10 | NC(=O)C(=O)C(Cc1ccccc1)NC(=O)c1cnoc1Cc1ccccc1 (stereo not drawn) [Compound 491, N-(4-amino-3,4-dioxo-1-phenylbutan-2-yl)-5-benzylisoxazole-4-carboxamide] |
| 3 to 10 | 3 to 10 | < 3 | Cn1cc(C(=O)NC(Cc2ccccc2)C(=O)C(N)=O)c(N2CCS(=O)(=O)CC2)n1 (stereo not drawn) [Compound 613, N-(4-amino-3,4-dioxo-1-phenylbutan-2-yl)-3-(1,1-dioxidothiomorpholino)-1-methyl-1H-pyrazole-4-carboxamide] |
| 3 to 10 | 3 to 10 | 3 to 10 | Cn1cc(C(=O)NC(Cc2ccccc2)C(=O)C(N)=O)c(N2CCOCC2)n1 (stereo not drawn) [Compound 614, N-(4-amino-3,4-dioxo-1-phenylbutan-2-yl)-1-methyl-3-morpholino-1H-pyrazole-4-carboxamide] |
| 3 to 10 | < 3 | < 3 | Cn1cc(C(=O)NC(Cc2ccccc2)C(=O)C(N)=O)c(C2CCOCC2)n1 (stereo not drawn) [Compound 617, N-(4-amino-3,4-dioxo-1-phenylbutan-2-yl)-1-methyl-3-(tetrahydro-2H-pyran-4-yl)-1H-pyrazole-4-carboxamide] |
| < 3 | < 3 | < 3 | COc1ccc(F)c(-c2oncc2C(=O)NC(Cc2ccccc2)C(=O)C(N)=O)c1 (stereo not drawn) [Compound 619, N-(4-amino-3,4-dioxo-1-phenylbutan-2-yl)-5-(2-fluoro-5-methoxyphenyl)isoxazole-4-carboxamide] |
| < 3 | < 3 | < 3 | Cn1cc(C(=O)NC(Cc2ccccc2)C(=O)C(N)=O)c(-c2ccc(Cl)s2)n1 (stereo not drawn) [Compound 621, N-(4-amino-3,4-dioxo-1-phenylbutan-2-yl)-3-(5-chlorothiophen-2-yl)-1-methyl-1H-pyrazole-4-carboxamide] |
| < 3 | < 3 | < 3 | Cn1cc(C(=O)NC(Cc2ccccc2)C(=O)C(N)=O)c(C2CCCN(C(=O)OC(C)(C)C)C2)n1 (stereo not drawn) [Compound 624, Tert-Butyl 3-(4-((4-amino-3,4-dioxo-1-phenylbutan-2-yl)carbamoyl)-1-methyl-1H-pyrazol-3-yl)piperidine-1-carboxylate] |
| < 3 | < 3 | < 3 | Cn1cc(C(=O)NC(Cc2ccccc2)C(=O)C(N)=O)c(-c2ccc3c(c2)OCCCO3)n1 (stereo not drawn) [Compound 625, N-(4-amino-3,4-dioxo-1-phenylbutan-2-yl)-3-(3,4-dihydro-2H-benzo[b][1,4]dioxepin-7-yl)-1-methyl-1H-pyrazole-4-carboxamide] |
| 3 to 10 | < 3 | 3 to 10 | Cn1cc(C(=O)NC(Cc2ccccc2)C(=O)C(N)=O)c(C2CCOC2)n1 (stereo not drawn) [Compound 627, N-(4-amino-3,4-dioxo-1-phenylbutan-2-yl)-1-methyl-3-(tetrahydrofuran-3-yl)-1H-pyrazole-4-carboxamide] |
| < 3 | < 3 | < 3 | Cn1cc(C(=O)NC(Cc2ccccc2)C(=O)C(N)=O)c(-c2coc3ccccc23)n1 (stereo not drawn) [Compound 628, N-(4-amino-3,4-dioxo-1-phenylbutan-2-yl)-3-(benzofuran-3-yl)-1-methyl-1H-pyrazole-4-carboxamide] |

Second part, the compound before the results:

| Structure (SMILES) | IC50 (Human Calpain 1/NS1) [µM] | IC50 (Human Calpain 2/NS1) [µM] | IC50 (Human Calpain 9/NS1) [µM] |
| --- | --- | --- | --- |
| Cn1cc(C(=O)NC(Cc2ccccc2)C(=O)C(N)=O)c(-c2cccs2)n1 (stereo not drawn) [Compound 615, N-(4-amino-3,4-dioxo-1-phenylbutan-2-yl)-1-methyl-3-(thiophen-2-yl)-1H-pyrazole-4-carboxamide] | < 3 | < 3 | < 3 |
| Cn1cc(C(=O)NC(Cc2ccccc2)C(=O)C(N)=O)c(C2CC2)n1 (stereo not drawn) [Compound 616, N-(4-amino-3,4-dioxo-1-phenylbutan-2-yl)-3-cyclopropyl-1-methyl-1H-pyrazole-4-carboxamide] | 3 to 10 | < 3 | 3 to 10 |
| Cc1nc(-c2cccc3c2OC(F)(F)O3)c(C(=O)NC(Cc2ccccc2)C(=O)C(N)=O)o1 (stereo not drawn) [Compound 618, N-(4-amino-3,4-dioxo-1-phenylbutan-2-yl)-4-(2,2-difluorobenzo[d][1,3]dioxol-4-yl)-2-methyloxazole-5-carboxamide] | < 3 | < 3 | < 3 |
| Cn1cc(C(=O)NC(Cc2ccccc2)C(=O)C(N)=O)c(C2CCCC2)n1 (stereo not drawn) [Compound 620, N-(4-amino-3,4-dioxo-1-phenylbutan-2-yl)-3-cyclopentyl-1-methyl-1H-pyrazole-4-carboxamide] | < 3 | < 3 | 3 to 10 |
| NC(=O)C(=O)C(Cc1ccccc1)NC(=O)c1cn(C(F)F)nc1-c1ccc2ncccc2c1 (stereo not drawn) [Compound 622, N-(4-amino-3,4-dioxo-1-phenylbutan-2-yl)-1-(difluoromethyl)-3-(quinolin-6-yl)-1H-pyrazole-4-carboxamide hydrochloride] | < 3 | < 3 | < 3 |
| Cn1cc(C(=O)NC(Cc2cccc(C(F)(F)F)c2)C(=O)C(N)=O)c(-c2ccccc2F)n1 (stereo not drawn) [Compound 623, N-(4-amino-3,4-dioxo-1-(3-(trifluoromethyl)phenyl)butan-2-yl)-3-(2-fluorophenyl)-1-methy 1-1H-pyrazole-4-carboxamide] | < 3 | < 3 | < 3 |
| Cn1cc(-c2nn(C)cc2C(=O)NC(Cc2ccccc2)C(=O)C(N)=O)cn1 (stereo not drawn) [Compound 626, N-(4-amino-3,4-dioxo-1-phenylbutan-2-yl)-1,1′-dimethyl-1H,1′H-[3,4′-bipyrazole]-4-carboxamide] | < 3 | < 3 | < 3 |
| NC(=O)C(=O)C(Cc1ccccc1)NC(=O)c1cn(C(F)F)nc1-c1ccc2ccncc2c1 (stereo not drawn) [Compound 630, N-(4-amino-3,4-dioxo-1-phenylbutan-2-yl)-1-(difluoromethyl)-3-(isoquinolin-7-yl)-1H-pyrazole-4-carboxamide] | < 3 | < 3 | < 3 |
